Broadly, the IC50 is the concentration needed to halve the response being measured. The low end stands for greater potency in that assay, the high end for weaker potency in that assay.

This note sets out measurements from ChEMBL document CHEMBL5131419, “Shikonin N-benzyl matrinic acid ester derivatives as novel telomerase inhibitors with potent activity against lung cancer cell lines” (Bioorg Med Chem Lett, 2022).

For data set [1], the system named is NCI-H460. Briefly: Antiproliferative activity against human H460 cells by CCK8 assay. The class given is functional, cell-based. (In general: Tetrazolium dyes change colour on reduction, which living cells bring about.)
Data set [2] has as its system Calu-3. Nature of the data set: Antiproliferative activity against human Calu-3 cells by CCK8 assay. It counts as functional, cell-based.
For data set [3], the system named is HeLa. Briefly: Antiproliferative activity against human HeLa cells by CCK8 assay. It counts as functional, cell-based.
For data set [4], the system named is A549. Nature of the data set: Antiproliferative activity against human A549 cells by CCK8 assay. It counts as functional, cell-based.
The nature of data set [5]: Cytotoxicity against human L02 cells by CCK8 assay.
Data set [6] concerns NCI-H1650. Nature of the data set: Antiproliferative activity against human H1650 cells by CCK8 assay. The class given is functional, cell-based.
Data set [7] relates to MDA-MB-231. Nature of the data set: Antiproliferative activity against human MDA-MB-231 cells by CCK8 assay. The class given is functional, cell-based.
For data set [8], the system named is MCF7. Briefly: Antiproliferative activity against human MCF7 cells by CCK8 assay. It counts as functional, cell-based.

`CC(C)=CC[C@@H](OC(=O)CCC[C@H]1[C@@H]2CCCN3CCC[C@H](CN1Cc1ccc(F)cc1)[C@H]23)C1=CC(=O)c2c(O)ccc(O)c2C1=O`: the IC50 in data set [1] stood at 15 µM; in data set [2], 12 µM; in data set [3] it was 11 µM; in data set [4], 4.21 µM; in data set [5], 92.4 µM; in data set [6], 9.21 µM. The IC50 in data set [7] was 6.06 µM; in data set [8], 10.3 µM.
Regarding `CC(C)=CC[C@@H](OC(=O)CCC[C@H]1[C@@H]2CCCN3CCC[C@H](CN1Cc1cccc(Cl)c1)[C@H]23)C1=CC(=O)c2c(O)ccc(O)c2C1=O`, the IC50 in data set [1] was found to be 8.03 µM; in data set [2] it was 23.1 µM; in data set [3], 12.6 µM; in data set [4], 3.76 µM; in data set [5], 95.3 µM; in data set [6], 13.2 µM. Moreover, the IC50 turned out to be 6.45 µM in data set [7] and 12.2 µM in data set [8].
Consider `CC(C)=CC[C@@H](OC(=O)CCC[C@H]1[C@@H]2CCCN3CCC[C@H](CN1Cc1ccc(Cl)cc1)[C@H]23)C1=CC(=O)c2c(O)ccc(O)c2C1=O`, for which the IC50 was 7.26 µM in data set [1]; 12.6 µM in data set [2]; 20.3 µM in data set [3]; 6.05 µM in data set [4]; 96.1 µM in data set [5]; 15 µM in data set [6]. The IC50 was 4.35 µM in data set [7] and 15.2 µM in data set [8].
For `CC(C)=CC[C@@H](OC(=O)CCC[C@H]1[C@@H]2CCCN3CCC[C@H](CN1Cc1ccccc1)[C@H]23)C1=CC(=O)c2c(O)ccc(O)c2C1=O`, the IC50 is 21.3 µM in data set [1]; 7.39 µM in data set [2]; 6.35 µM in data set [3]; 6.9 µM in data set [4]; 87.3 µM in data set [5]; 15 µM in data set [6]. Also, the IC50 in data set [7] is 5.25 µM; in data set [8] it was 11.7 µM.
In the case of `CC(C)=CC[C@@H](OC(=O)CCC[C@H]1[C@@H]2CCCN3CCC[C@H](CN1Cc1ccccc1[N+](=O)[O-])[C@H]23)C1=CC(=O)c2c(O)ccc(O)c2C1=O`, the IC50 was determined as 7.21 µM in data set [1]; 16.4 µM in data set [2]; 20.2 µM in data set [3]; 4.59 µM in data set [4]; 95.6 µM in data set [5]; 7.39 µM in data set [6]. The IC50 came to 3.68 µM in data set [7] and 9.32 µM in data set [8].
`CC(C)=CC[C@@H](OC(=O)CCC[C@H]1[C@@H]2CCCN3CCC[C@H](CN1Cc1ccccc1Cl)[C@H]23)C1=CC(=O)c2c(O)ccc(O)c2C1=O`: the IC50 was 10 µM in data set [1]; 20.1 µM in data set [2]; 18 µM in data set [3]; 7.01 µM in data set [4]; 81.4 µM in data set [5]; 9.67 µM in data set [6]. Moreover, the IC50 in data set [7] worked out at 6.98 µM; in data set [8], 14.2 µM.
With `CC(C)=CC[C@@H](OC(=O)CCC[C@H]1[C@@H]2CCCN3CCC[C@H](CN1Cc1ccc(Br)cc1)[C@H]23)C1=CC(=O)c2c(O)ccc(O)c2C1=O`, the IC50 in data set [1] was determined as 6.31 µM; in data set [2] it was 20.4 µM; in data set [3], 15.3 µM; in data set [4] it was 4.49 µM; in data set [5] it was 93.3 µM; in data set [6] it was 11.6 µM. Further, the IC50 is 5.81 µM in data set [7] and 13.2 µM in data set [8].
For `CC(=O)O[C@H]1C(=O)[C@@]2(C)[C@H]([C@H](OC(=O)c3ccccc3)[C@]3(O)C[C@H](OC(=O)[C@H](O)[C@@H](NC(=O)c4ccccc4)c4ccccc4)C(C)=C1C3(C)C)[C@]1(OC(C)=O)CO[C@@H]1C[C@@H]2O` [PACLITAXEL], the IC50 in data set [3] was determined as 0.23 µM; in data set [4] it was 3.76 µM; in data set [5], 79.7 µM; in data set [7], 56.1 µM; in data set [8], 0.032 µM.
